In publication PMC6817881, “Antimalarial Quinoline Drugs Inhibit β-Hematin and Increase Free Hemin Catalyzing Peroxidative Reactions and Inhibition of Cysteine Proteases” (Scientific Reports, 2019):
Residues, ends and D or L forms follow the SMILES beside them. *: point of attachment. AMC = Cc1cc(=O)oc2cc(N*)ccc12; Cbz = O=C(OCc1ccccc1)*

Columns and labels:
papain = target: T1, papain (Carica papaya, UniProt P00784); experiment: RP-HPLC of released AMC; type: biochemical; settings: pH 4.8 acetate, 37 °C, 100 µM substrate, cysteine; medium also held H2O2, hemin/chloroquine
T1 construct: native commercial enzyme (Sigma)
T1 sequence (P00784 134-345): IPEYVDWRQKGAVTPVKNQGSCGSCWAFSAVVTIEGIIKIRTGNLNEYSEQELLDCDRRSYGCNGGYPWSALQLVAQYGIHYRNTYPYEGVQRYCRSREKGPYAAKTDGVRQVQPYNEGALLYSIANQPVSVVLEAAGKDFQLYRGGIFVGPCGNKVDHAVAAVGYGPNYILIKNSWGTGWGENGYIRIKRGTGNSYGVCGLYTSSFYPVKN

cathepsin B = target: T2, cathepsin B (Bos taurus, UniProt P07688); experiment: RP-HPLC of released AMC; type: biochemical; settings: 100 µM substrate, 37 °C, cysteine, globin, H2O2; hemin/chloroquine incubation medium
T2 construct: gene CTSB; native commercial enzyme from bovine spleen (Sigma)

Cc1cc(=O)oc2cc(NC(=O)[C@H](CCCNC(=N)N)NC(=O)[C@H](Cc3ccccc3)NC(=O)OCc3ccccc3)ccc12 [Z-Phe-Arg-AMC] (Cbz-Phe-Arg-{AMC})
RP-HPLC of released AMC (papain): papain, ficin and cathepsin-B using Z-Phe-Arg-AMC peptide
RP-HPLC of released AMC (cathepsin B): papain, ficin and cathepsin-B using Z-Phe-Arg-AMC peptide
